Values of other authors, collected in publication PMC5061580 (Journal of biomolecular structure & dynamics, 2016).

Columns and labels:
blood-brain barrier = conditions: in-situ rat brain perfusion; ref Kiptoo et al., 2011; On et al., 2014
[1] = test system: Madin-Darby canine kidney cells (MDCK); conditions: in vitro cell culture monolayers; ref Makagiansar et al., 2001

Ac-SHAVSS-NH2 [HAV6]
brain delivery of 14C-mannitol and 3H-daunomycin (blood-brain barrier): increase the brain delivery | delivery of 14C-mannitol across MDCK monolayers [1]: enhances
